In patent US8956824B2, “Methods for identifying allosteric modulators of ship polypeptides” (British Columbia Cancer Agency Branch, priority 2006, dated 2015):
Entries after “also recorded” stand apart in the source; their conditions may differ.

Columns and labels:
PH domain deleted SHIP1 = target: T1, PH domain deleted SHIP1 (Mus musculus, UniProt Q9ES52, DEL292-400/E403A/P402A/Q401A); assay: In vitro SHIP enzyme assay, PH domain deleted SHIP1; assay type: biochemical; conditions: FIG. 10, FIG. 14A
T1 construct: Full length, wild-type SHIP1 enzyme (wt) or SHIP1 enzyme in which the PH or C2 domains were deleted; His6 (N); made in house; 293T cells are stated only for the wild-type enzyme
T1 sequence (Q9ES52 with tags, fused parts or gaps DEL292-400/Q401A/P402A/E403A): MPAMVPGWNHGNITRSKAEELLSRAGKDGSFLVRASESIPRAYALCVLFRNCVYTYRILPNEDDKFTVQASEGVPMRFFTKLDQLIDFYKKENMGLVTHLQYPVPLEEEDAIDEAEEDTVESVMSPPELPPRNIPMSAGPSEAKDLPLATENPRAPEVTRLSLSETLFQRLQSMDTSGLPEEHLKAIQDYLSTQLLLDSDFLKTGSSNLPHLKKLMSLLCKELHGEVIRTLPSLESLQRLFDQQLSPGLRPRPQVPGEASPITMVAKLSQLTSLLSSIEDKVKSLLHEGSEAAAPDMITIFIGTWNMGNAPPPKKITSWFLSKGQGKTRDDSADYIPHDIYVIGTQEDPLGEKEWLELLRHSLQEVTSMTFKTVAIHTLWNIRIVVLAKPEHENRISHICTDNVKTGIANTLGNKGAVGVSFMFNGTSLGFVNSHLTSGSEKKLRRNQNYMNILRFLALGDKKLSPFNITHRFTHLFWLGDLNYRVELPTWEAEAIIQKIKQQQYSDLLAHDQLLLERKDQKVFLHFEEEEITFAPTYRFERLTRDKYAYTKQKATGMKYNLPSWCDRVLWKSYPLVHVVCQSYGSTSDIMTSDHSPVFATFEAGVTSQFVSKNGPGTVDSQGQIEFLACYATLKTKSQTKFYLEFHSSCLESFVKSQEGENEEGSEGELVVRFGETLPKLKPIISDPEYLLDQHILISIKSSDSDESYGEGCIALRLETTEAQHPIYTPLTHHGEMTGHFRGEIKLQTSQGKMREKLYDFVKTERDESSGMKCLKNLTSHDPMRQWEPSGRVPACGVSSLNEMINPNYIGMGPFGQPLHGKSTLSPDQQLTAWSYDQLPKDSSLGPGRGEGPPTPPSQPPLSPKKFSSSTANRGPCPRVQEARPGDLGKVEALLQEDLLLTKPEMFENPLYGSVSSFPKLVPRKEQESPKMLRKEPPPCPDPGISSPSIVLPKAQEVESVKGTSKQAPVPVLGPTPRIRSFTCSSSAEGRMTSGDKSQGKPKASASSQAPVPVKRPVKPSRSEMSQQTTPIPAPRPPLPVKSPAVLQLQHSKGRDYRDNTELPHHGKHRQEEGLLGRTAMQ
Description: The SHIP1 PH domain deletion mutant and an isolated PH domain construct were generated using techniques similar to those used for the C2 domain. More specifically, the PH domain (amino acids 984-1319) was deleted from the murine SHIP (mSHIP) cDNA as follows: using pME18S-mSHIP1 as a template, a 527 by PCR fragment (“Upstream Fragment”) was generated using the indicated primers to generate a fragment corresponding to sequence immediately upstream of the SHIP PH domain within which resides a unique AccI restriction cut site. A Nod restriction cut site was also introduced to the 3′ end of this fragment. The PCR product was digested with Acd and Nod, and gel purified. Using pME18S-mSHIP1 as a template, a 776 by PCR fragment (“Downstream Fragment”) was generated using the indicated primers corresponding to sequence immediately downstream of the SHIP PH domain within which resides a unique ClaI restriction cut site. A Nod restriction cut site was introduced to the 5′ end of this fragment. […]
In vitro SHIP enzyme assay. […] The reaction was allowed to proceed for 20 min at 37° C. and the amount of inorganic phosphate released assessed by the addition of Malachite Green reagent followed by an absorbance measurement at 650 nm (15). […] Enzyme data are expressed as the mean of triplicates+/−SEM. […]

[1] = test system: SHIP1+/+ and SHIP1−/− BMmφs; assay: LPS-stimulated TNFα production in BMmφs; assay type: cell-based, mouse; conditions: 30 min pretreatment, 10 ng/mL LPS, ELISA
Experimental: Production of SHIP+/+ and SHIP-/- BMMCs and BMnφs. […] LPS stimulation of BMmφs. For the analysis of LPS-stimulated TNFα production, 2 ×10^5 cells were plated the night before in 24 well plates in BMmφp medium. […] Data are expressed as the mean +/- SEM of triplicates and experiments were repeated 3 times. For analysis of intracellular signaling, 2×10^6 cells were plated the night before in 6 cm tissue culture plates. […] Cells were washed with 4° C. PBS and resuspended in lysis buffer (50 mM Hepes, 2 mM EDTA, 1mM NaVO4 , 100 mM NaF, 50 mM NaPPi and 1%NP4O) supplemented with COMPLETETM Protease Inhibitor Cocktail (Roche, Montreal, Canada). Lysates were rocked at 4° C. for 30 min and clarified by centrifuging 20 min at 12000×g. Lysates were then made 1× in Laemmli's buffer, boiled 2 min and loaded onto 7.5% SDS polyacrylamide […]. Immunoblot analysis for phospho PKB (Cell Signalling, Mississauga, Ont), SHIP1 and actin (Santa Cruz, Santa Cruz, Calif.) were carried out as described previously (18). Results are representative of 3 independent experiments.

LPS-induced plasma TNFα = assay: Mouse septicemia model; assay type: in vivo; conditions: for plasma TNFα level after LPS challenge: oral, 30 min prior to IP 2 mg/kg LPS, blood 2 h later, AQX-016A 20 mg/kg
Description: Mouse septicemia model. […] Blood was drawn 2 hrs later for determination of plasma TNFα by ELISA. Results are representative of 3 independent experiments.

| Molecule | activation of SHIP1 with PH domain deleted (PH domain deleted SHIP1) | LPS-stimulated TNFα production, SHIP1+/+ vs SHIP1−/− macrophages [1] | plasma TNFα level after LPS challenge (LPS-induced plasma TNFα) | bioavailability (LPS-induced plasma TNFα; concluded from septicemia (oral) and cutaneous anaphylaxis (topical) models) |
| --- | --- | --- | --- | --- |
| phosphatidylinositol-3,4-bisphosphate [PI-3,4-P2, reference compound] | abrogates ability of SHIP to be activated |  |  |  |
| Cc1cc(O)cc2c1[C@]1(C)CC[C@H]3C(C)(C)CCC[C@]3(C)[C@H]1C2 [AQX-MN100] | attenuates but does not prevent activation; also recorded: abrogates ability of SHIP to be activated | selectively inhibited TNFα production from SHIP1+/+ but not SHIP1−/− macrophages; also recorded: inhibits TNFα production from LPS stimulated SHIP1+/+ but not −/− BMmφs | efficiently inhibited the LPS-induced elevation of plasma TNFα levels; also recorded: inhibits LPS-induced plasma TNFα levels in mice |  |
| Cc1cc(O)c(O)c2c1[C@]1(C)CC[C@H]3C(C)(C)CCC[C@]3(C)[C@H]1C2 [AQX-016A] |  | preferentially inhibited LPS-stimulated TNFα production in SHIP1+/+ than in SHIP1−/− | reduced the level of TNFα to the same extent as the control | both orally and topically bioavailable |
